We go through four compounds from patent US20050049285A1, “Dichloropyridyl methyl cyanamidines” (priority 2000, published 2005).

In data set [1] the test system is Erysiphe graminis f. sp. hordei. Description: Erysiphe-Test (barley)/induction of resistance. It counts as in vivo, Erysiphe graminis f. sp. hordei on barley. The settings on record: barley plants sprayed at 750 g/ha; inoculated 4 days after treatment; evaluated 7 days after inoculation; 0% = as control, 100% = no infection. How it is done: Erysiphe-Test (Barley)/Induction of Resistance
To produce a suitable preparation of active compound, 1 part by weight of active compound is mixed with the stated amounts of solvent and emulsifier, and the concentrate is diluted with water to the desired concentration.
To test for resistance-inducing activity, young cereal plants are sprayed with the preparation of active compound at the stated application rate. 4 days after the treatment, the plants are inoculated with spores of Erysiphe graminis f. sp. hordei. The plants are then placed in the greenhouse at 70% relative atmospheric humidity and a temperature of 18 C.
Evaluation is carried out 7 days after the inoculation. 0% means an efficacy which corresponds to that of the control, whereas an efficacy of 100% means that no infection is observed.

`CC/C(=N\C#N)NCc1cc(Cl)nc(Cl)c1` displayed an Efficacy in % in data set [1] of 80%. The same measure, in the same setting: next, `C/C(=N\C#N)NCc1cc(Cl)nc(Cl)c1`: 95%. For orientation: melting point means the temperature, or range, at which the solid turns liquid. `N#C/N=C/NCc1cc(Cl)nc(Cl)c1` [Example 1, N′-cyano-N-[(2,6-dichloro-4-pyridinyl)methyl]imidoformamide]: the melting point turned out to be 160 °C. Turning to `N#C/N=C/NCc1cc(Cl)nc(Cl)c1` [drawing 9], the Efficacy in % in data set [1] is given as 100%.
